{
  "source": "BindingDB's records for doi:10.1021/acs.jnatprod.1c00014",
  "about": "(Jiangsu University of Science and Technology, 2021)",
  "data": [
    {"target": "Maltase-glucoamylase (Homo sapiens, UniProt O43451)", "sequence (O43451 whole entry)": "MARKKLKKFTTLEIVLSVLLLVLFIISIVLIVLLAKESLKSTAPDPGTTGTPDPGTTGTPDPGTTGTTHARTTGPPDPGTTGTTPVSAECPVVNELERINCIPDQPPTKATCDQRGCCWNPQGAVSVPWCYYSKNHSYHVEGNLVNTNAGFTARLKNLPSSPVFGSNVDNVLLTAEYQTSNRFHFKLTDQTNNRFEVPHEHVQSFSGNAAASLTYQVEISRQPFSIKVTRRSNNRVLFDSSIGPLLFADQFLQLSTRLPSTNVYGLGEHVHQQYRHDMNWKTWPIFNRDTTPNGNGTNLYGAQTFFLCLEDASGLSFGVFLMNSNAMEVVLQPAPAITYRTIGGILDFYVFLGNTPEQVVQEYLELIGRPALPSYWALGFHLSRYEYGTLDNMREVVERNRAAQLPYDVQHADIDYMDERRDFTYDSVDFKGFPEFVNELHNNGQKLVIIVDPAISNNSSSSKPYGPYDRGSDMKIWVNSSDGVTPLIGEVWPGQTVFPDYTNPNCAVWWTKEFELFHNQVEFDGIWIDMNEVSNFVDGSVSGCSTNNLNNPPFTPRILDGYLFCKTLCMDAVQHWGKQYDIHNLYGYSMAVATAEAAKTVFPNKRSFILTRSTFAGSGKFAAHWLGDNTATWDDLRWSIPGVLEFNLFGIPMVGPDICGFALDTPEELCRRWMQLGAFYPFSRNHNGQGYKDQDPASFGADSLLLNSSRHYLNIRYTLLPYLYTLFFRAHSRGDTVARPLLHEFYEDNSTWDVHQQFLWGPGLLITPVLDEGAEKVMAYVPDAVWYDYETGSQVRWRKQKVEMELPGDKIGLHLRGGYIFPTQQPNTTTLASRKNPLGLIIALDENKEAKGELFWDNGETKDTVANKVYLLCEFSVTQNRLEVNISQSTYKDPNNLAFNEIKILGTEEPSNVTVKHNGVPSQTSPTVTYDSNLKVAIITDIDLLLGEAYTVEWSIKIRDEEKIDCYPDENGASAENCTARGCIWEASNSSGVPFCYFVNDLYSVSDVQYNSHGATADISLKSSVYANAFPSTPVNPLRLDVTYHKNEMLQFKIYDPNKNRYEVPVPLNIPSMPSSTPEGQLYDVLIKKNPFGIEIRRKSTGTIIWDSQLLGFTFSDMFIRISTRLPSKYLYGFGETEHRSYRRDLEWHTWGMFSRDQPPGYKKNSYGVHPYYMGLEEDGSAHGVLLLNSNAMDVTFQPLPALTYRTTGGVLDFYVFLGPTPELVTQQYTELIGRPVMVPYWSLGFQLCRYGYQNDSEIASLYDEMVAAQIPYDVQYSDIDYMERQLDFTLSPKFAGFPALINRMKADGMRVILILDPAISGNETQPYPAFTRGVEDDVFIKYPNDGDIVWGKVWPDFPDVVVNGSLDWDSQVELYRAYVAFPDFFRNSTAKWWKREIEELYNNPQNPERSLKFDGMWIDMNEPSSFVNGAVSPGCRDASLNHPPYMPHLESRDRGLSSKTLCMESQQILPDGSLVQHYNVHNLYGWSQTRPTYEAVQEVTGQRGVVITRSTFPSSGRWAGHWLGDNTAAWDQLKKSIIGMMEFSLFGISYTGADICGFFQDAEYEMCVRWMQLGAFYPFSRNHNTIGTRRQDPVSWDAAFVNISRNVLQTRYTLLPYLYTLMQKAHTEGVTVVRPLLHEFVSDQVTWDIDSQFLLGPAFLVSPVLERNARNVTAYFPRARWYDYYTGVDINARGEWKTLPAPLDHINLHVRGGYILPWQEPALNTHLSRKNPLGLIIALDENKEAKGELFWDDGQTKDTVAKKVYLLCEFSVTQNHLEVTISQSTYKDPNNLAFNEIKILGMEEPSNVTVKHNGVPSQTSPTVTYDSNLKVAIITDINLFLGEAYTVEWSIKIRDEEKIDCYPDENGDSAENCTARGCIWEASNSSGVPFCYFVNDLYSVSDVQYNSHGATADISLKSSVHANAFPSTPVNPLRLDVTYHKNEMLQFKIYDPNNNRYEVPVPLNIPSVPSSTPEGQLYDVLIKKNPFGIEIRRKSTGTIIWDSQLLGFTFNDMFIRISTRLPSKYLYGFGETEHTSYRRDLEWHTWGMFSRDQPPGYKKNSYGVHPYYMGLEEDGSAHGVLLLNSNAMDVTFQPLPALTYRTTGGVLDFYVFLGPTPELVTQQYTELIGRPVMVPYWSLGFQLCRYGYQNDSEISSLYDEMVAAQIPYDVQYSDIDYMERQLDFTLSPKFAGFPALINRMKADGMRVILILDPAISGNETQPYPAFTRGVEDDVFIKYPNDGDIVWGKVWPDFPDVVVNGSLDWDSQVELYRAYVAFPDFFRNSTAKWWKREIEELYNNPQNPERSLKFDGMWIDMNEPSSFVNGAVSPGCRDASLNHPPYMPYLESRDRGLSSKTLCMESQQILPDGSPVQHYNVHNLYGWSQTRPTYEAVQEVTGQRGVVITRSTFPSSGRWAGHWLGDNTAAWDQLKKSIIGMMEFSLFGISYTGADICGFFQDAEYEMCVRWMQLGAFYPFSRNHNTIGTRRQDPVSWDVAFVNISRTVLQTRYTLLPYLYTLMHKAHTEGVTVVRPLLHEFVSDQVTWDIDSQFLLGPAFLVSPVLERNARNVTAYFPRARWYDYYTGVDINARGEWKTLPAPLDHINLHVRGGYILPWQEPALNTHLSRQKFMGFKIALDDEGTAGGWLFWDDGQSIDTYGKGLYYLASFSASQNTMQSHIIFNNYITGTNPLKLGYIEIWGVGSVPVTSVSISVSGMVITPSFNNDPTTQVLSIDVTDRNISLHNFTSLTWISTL", "assay": "Inhibition of alpha-glucosidase (unknown origin) preincubated for 5 mins followed by addition of pNPG substrate and measured after 30 mins by spectrophotometric method", "units": {"IC50": "µM"}, "values": [
      {"smiles": "COc1ccc(-c2oc3cc(OC)cc(OC)c3c(=O)c2OCCCCCCCCN2C[C@H](O)[C@@H](O)[C@H](O)[C@H]2CO)cc1", "IC50": 1.78},
      {"smiles": "COc1ccc(-c2oc3cc(OC)cc(OC)c3c(=O)c2OCCCCCN2C[C@H](O)[C@@H](O)[C@H](O)[C@H]2CO)cc1", "IC50": 40.6},
      {"smiles": "COc1ccc(-c2oc3cc(OC)cc(OC)c3c(=O)c2OCCCCCCCCCCCN2C[C@H](O)[C@@H](O)[C@H](O)[C@H]2CO)cc1", "IC50": 0.24}
    ]}
  ]
}
